# In ChEMBL document CHEMBL1148006, “Benzimidazo[1,2-c][1,2,3]thiadiazole-7-sulfonamides as inhibitors of carbonic anhydrase” (Bioorg Med Chem Lett, 2007):
# pKd: −log10 of the molar value.
# Target: Carbonic anhydrase 2 (Bos taurus, UniProt P00921)
# Experiment: Binding affinity to bovine CA2 by typical isothermal titration calorimetry
# Sequence of Carbonic anhydrase 2 (P00921 whole entry): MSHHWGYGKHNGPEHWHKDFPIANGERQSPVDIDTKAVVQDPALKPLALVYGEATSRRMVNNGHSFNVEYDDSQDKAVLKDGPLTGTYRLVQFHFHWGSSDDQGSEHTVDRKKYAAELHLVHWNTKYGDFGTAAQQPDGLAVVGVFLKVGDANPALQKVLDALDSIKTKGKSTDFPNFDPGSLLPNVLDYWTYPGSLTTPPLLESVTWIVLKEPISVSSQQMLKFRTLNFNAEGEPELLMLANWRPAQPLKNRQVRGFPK
row,Compound,pKd
1,CS(=O)(=O)C1=S=Nn2c1nc1ccc(S(N)(=O)=O)cc12,6.30
2,CSC1=S=Nn2c1nc1ccc(S(N)(=O)=O)cc12,6.49
3,CN1CCN(C2=S=Nn3c2nc2ccc(S(N)(=O)=O)cc23)CC1,6.41

# The next compounds have a higher pKd than those just listed; values first:
row,pKd,Compound
1,6.55,NS(=O)(=O)c1ccc2nc3n(c2c1)N=S=C3Sc1ccccc1
2,7.42,NS(=O)(=O)c1ccc2nc3n(c2c1)N=S=C3N1CCOCC1
3,6.85,NS(=O)(=O)c1ccc2nc3n(c2c1)N=S=C3Cl
4,6.54,NS(=O)(=O)c1ccc2nc3n(c2c1)N=S=C3
